One series in a line: Solubility at pH 6.8. Type of series: physicochemical. The conditions noted are these: pH 6.8, aqueous buffer, thermodynamic from solid; read-out: solubility. The method, boiled down:
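Solubility was measured at pH 6.8 following the cited Zhou et al. (2007) procedure.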

A further series deals with T1, PI3K alpha (Homo sapiens, UniProt P42336).
T1 construct: p85(iSH2) fusion partner (see partner chain) (N); His tag (C); made in house; host or cells: baculovirus; Tn5 (Trichoplusia ni) or TiniPro insect cells
Description: PI3K alpha kinase assay (Kinase-Glo luminescence). It is filed as biochemical. Put shortly: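 Enzyme 10 nM PI3Kα EMV B1075; ATP 1 μM; PI 10 μg/mL; Tris-HCl pH 7.5 10 mM, MgCl2 3 mM, NaCl 50 mM, CHAPS 0.05%, DTT 1 mM; 60 min RT; Kinase-Glo luminescence; 4-parameter IC50 fit, 8 concentrations, single points.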
For orientation: In Kinase-Glo more light means more ATP remaining.

In series [1] the test system is PKB Ser473 phosphorylation in Rat1-myr-HA-p110 beta cells. Description: Reverse protein array assay, PKB Ser473 phosphorylation in Rat1-myr-p110 beta cells. Type of series: cell-based. The conditions noted are these: 0.5 h, pAkt Ser473, 30 minutes incubation, read-out: p-PKB IC50. Put shortly: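 Measured: PKB Ser473 phosphorylation by reverse protein array in Rat1 cells expressing myr-HA-p110 alpha, beta or delta, after 30 min compound treatment at 37 °C with 0.2% DMSO vehicle.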

Structures are written as SMILES. In brackets after ≈: the same amount, converted by molar mass. A value given as a limit tells only on which side of the number the result lay.

T1 sequence (P42336 with tags, fused parts or gaps limits assumed): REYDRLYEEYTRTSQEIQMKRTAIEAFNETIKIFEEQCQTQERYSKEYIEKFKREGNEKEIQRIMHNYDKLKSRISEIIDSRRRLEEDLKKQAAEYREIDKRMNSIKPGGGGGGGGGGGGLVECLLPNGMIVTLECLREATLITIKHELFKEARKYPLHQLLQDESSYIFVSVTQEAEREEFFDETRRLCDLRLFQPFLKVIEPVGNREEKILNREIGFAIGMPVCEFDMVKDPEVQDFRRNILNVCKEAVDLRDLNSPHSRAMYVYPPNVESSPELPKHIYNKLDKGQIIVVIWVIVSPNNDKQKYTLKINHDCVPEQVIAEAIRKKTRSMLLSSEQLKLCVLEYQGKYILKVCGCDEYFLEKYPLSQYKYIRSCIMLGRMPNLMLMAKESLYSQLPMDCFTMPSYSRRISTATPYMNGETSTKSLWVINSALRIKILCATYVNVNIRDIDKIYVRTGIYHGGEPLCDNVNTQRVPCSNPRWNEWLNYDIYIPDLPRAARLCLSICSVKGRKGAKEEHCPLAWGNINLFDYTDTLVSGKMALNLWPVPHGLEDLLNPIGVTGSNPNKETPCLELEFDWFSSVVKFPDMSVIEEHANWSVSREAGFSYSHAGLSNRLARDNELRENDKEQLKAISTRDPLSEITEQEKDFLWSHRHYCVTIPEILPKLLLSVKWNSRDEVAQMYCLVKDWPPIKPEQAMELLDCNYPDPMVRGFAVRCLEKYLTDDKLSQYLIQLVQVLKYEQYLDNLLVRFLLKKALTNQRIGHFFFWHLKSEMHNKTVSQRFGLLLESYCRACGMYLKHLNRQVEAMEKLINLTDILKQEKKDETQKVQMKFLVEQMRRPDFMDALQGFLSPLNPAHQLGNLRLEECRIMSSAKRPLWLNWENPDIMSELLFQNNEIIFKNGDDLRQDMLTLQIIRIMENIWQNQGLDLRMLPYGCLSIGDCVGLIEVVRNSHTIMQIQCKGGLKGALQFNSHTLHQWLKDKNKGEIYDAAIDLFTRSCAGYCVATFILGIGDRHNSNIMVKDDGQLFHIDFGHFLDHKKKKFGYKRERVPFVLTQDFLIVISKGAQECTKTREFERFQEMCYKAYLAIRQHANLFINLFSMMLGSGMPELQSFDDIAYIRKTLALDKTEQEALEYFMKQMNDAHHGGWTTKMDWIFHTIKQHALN

As a reminder, the solubility is the concentration that dissolves in the medium under given conditions. As a reminder, the IC50 is the concentration needed to halve the response being measured. In the case of `CCNc1ncc(-c2ccc3ncc4c(c3c2)n(-c2c(C)nn(C)c2C)c(=O)n4C)cc1COC` [Example 206.2, 8-(6-Ethylamino-5-methoxymethyl-pyridin-3-yl)-3-methyl-1-(1,3,5-trimethyl-1H-pyrazol-4-yl)-1,3-dihydro-imidazo[4,5-c]quinolin-2-one], the solubility in the series “Solubility at pH 6.8” is > 472 µg/mL. Also, the results for the half-inhibitory concentration (IC50) (at PI3K alpha; in series [1]) were 186 nM and 959 nM, respectively.

Take `CCc1ncc(-c2ccc3ncc4c(c3c2)n(-c2cn(C)nc2C)c(=O)n4C)cc1N` [Example 208, 8-(5-Amino-6-ethyl-pyridin-3-yl)-1-(1,3-dimethyl-1H-pyrazol-4-yl)-3-methyl-1,3-dihydro-imidazo[4,5-c]quinolin-2-one]: the solubility in “Solubility at pH 6.8” turned out to be 133 µg/mL (≈ 322 µM). Also, the IC50 on PI3K alpha was determined as 15 nM; in series [1], 17 nM.

Take `CO[C@@H]1CCN(c2ccc(-c3ccc4ncc5c(c4c3)n(-c3cn(C)nc3C)c(=O)n5C)cn2)C1` [Example 213.1, 1-(1,3-Dimethyl-1H-pyrazol-4-yl)-8-[6-((R)-3-methoxy-pyrrolidin-1-yl)-pyridin-3-yl]-3-methyl-1,3-dihydro-imidazo[4,5-c]quinolin-2-one]: the solubility in the series “Solubility at pH 6.8” came to 217 µg/mL (≈ 462 µM). The values for the IC50 (on PI3K alpha; in series [1]) were 462 nM and 342 nM, respectively.

As for `Cn1cc(-n2c(=O)n(C)c3cnc4ccc(-c5cncc(C(C)(C)C#N)c5)cc4c32)c(Cl)n1` [Example 220.3, 2-{5-[1-(3-Chloro-1-methyl-1H-pyrazol-4-yl)-3-methyl-2-oxo-2,3-dihydro-1H-imidazo[4,5-c]quinolin-8-yl]-pyridin-3-yl}-2-methyl-propionitrile], the solubility in the series “Solubility at pH 6.8” turned out to be 16 µg/mL (≈ 34.9 µM). In addition, the half-inhibitory concentration (IC50) on PI3K alpha turned out to be 5 nM; in series [1], 6 nM.

Take `Cc1nn(C)cc1-n1c(=O)n(C)c2cnc3ccc(-c4cncc(C5(C#N)CCC5)c4)cc3c21` [Example 221.1, 1-{5-[1-(1,3-Dimethyl-1H-pyrazol-4-yl)-3-methyl-2-oxo-2,3-dihydro-1H-imidazo[4,5-c]quinolin-8-yl]-pyridin-3-yl}-cyclobutanecarbonitrile]: the solubility in the series “Solubility at pH 6.8” was 21 µg/mL (≈ 46.7 µM). In addition, the IC50 on PI3K alpha turned out to be 14 nM; in series [1], 20 nM.

As for `CCN1C(=O)OCc2ncc(-c3ccc4ncc5c(c4c3)n(-c3cn(C)nc3C)c(=O)n5C)cc21` [Example 237, 1-(1,3-Dimethyl-1H-pyrazol-4-yl)-8-(1-ethyl-2-oxo-1,4-dihydro-2H-pyrido[3,2-d][1,3]oxazin-7-yl)-3-methyl-1,3-dihydro-imidazo[4,5-c]quinolin-2-one], the solubility in the series “Solubility at pH 6.8” came to 14 µg/mL (≈ 29.8 µM). Also, the figures for the IC50 (on PI3K alpha; in series [1]) were 8 nM and 55 nM, respectively.

For `CCn1c(=O)n(-c2cn(C)nc2C)c2c3cc(-c4cncc(N)c4)ccc3ncc21` [Example 245, 8-(5-Amino-pyridin-3-yl)-1-(1,3-dimethyl-1H-pyrazol-4-yl)-3-ethyl-1,3-dihydro-imidazo[4,5-c]quinolin-2-one], the solubility in the series “Solubility at pH 6.8” came to 129 µg/mL (≈ 323 µM). Besides, the IC50 on PI3K alpha came out at 22 nM; in series [1] it was 386 nM.

Turning to `Cc1nn(CC(=O)N2CCC2)cc1-n1c(=O)n(C)c2cnc3ccc(-c4cnc(N5CCCC5)nc4)cc3c21` [Example 247.2, 1-[1-(2-Azetidin-1-yl-2-oxo-ethyl)-3-methyl-1H-pyrazol-4-yl]-3-methyl-8-(2-pyrrolidin-1-yl-pyrimidin-5-yl)-1,3-dihydro-imidazo[4,5-c]quinolin-2-one], the solubility in the series “Solubility at pH 6.8” stood at 56 µg/mL (≈ 107 µM). Moreover, the IC50 is 38 nM at PI3K alpha and 87 nM in series [1].
